Source: the NIST ThermoML archive (doi:10.1016/j.fluid.2011.11.020)
Numbers after ± are expanded uncertainties. Values belong to the molecule of their own block, whether it stands above or below them.

Conditions: Liquid, Ebulliometric method (Recirculating still)

Structure (SMILES): CCC(C)C [2-methylbutane]
Normal boiling temperature: 28.00 ± 0.2 °C

Structure (SMILES): CCCCCCC [heptane]
vapor or sublimation pressure (370.27 K): 97.43 ± 0.14 kPa
vapor or sublimation pressure (370.74 K): 98.52 ± 0.15 kPa
vapor or sublimation pressure (370.93 K): 99.39 ± 0.17 kPa
vapor or sublimation pressure (371.13 K): 99.78 ± 0.16 kPa
vapor or sublimation pressure (371.52 K): 101.07 ± 0.17 kPa
vapor or sublimation pressure (372.25 K): 103.43 ± 0.11 kPa
vapor or sublimation pressure (372.36 K): 103.56 ± 0.17 kPa
vapor or sublimation pressure (372.56 K): 104.41 ± 0.15 kPa
vapor or sublimation pressure (372.76 K): 104.67 ± 0.17 kPa
vapor or sublimation pressure (372.97 K): 105.83 ± 0.19 kPa
vapor or sublimation pressure (373.17 K): 106.29 ± 0.14 kPa
vapor or sublimation pressure (373.48 K): 107.02 ± 0.14 kPa
Normal boiling temperature: 98.49 ± 0.2 °C

Structure (SMILES): c1ccsc1 [thiophene]
Normal boiling temperature: 84.27 ± 0.2 °C

Second part, the molecule after the results:

Normal boiling temperature: 55.73 ± 0.2 °C
Structure (SMILES): C=C(C)C(C)C [2,3-dimethyl-1-butene]

Normal boiling temperature: 73.00 ± 0.21 °C
Structure (SMILES): CC(C)=C(C)C [2,3-dimethyl-2-butene]
